Data as given in patent publication US20230357240A1, “NOVEL N-HETEROCYCLIC BET BROMODOMAIN INHIBITOR, AND PREPARATION METHOD THEREOF AND MEDICAL USE THEREOF” (Chengdu Easton Biopharmaceuticals Co., Ltd., priority 2020, published 2023).
Where two headings read alike, the source gives them in different places.

Columns and labels:
hERG ion channel = molecular target: T1, hERG ion channel (Homo sapiens, UniProt Q12809); assay: hERG inhibition test, whole-cell patch clamp in HEK293 cells stably expressing the hERG ion channel; type: cell-based; details: tail current, Hill equation fit
T1 construct: expressed in transfected cells; host or cells: HEK293 cells stably expressing hERG
T1 sequence (Q12809 whole entry): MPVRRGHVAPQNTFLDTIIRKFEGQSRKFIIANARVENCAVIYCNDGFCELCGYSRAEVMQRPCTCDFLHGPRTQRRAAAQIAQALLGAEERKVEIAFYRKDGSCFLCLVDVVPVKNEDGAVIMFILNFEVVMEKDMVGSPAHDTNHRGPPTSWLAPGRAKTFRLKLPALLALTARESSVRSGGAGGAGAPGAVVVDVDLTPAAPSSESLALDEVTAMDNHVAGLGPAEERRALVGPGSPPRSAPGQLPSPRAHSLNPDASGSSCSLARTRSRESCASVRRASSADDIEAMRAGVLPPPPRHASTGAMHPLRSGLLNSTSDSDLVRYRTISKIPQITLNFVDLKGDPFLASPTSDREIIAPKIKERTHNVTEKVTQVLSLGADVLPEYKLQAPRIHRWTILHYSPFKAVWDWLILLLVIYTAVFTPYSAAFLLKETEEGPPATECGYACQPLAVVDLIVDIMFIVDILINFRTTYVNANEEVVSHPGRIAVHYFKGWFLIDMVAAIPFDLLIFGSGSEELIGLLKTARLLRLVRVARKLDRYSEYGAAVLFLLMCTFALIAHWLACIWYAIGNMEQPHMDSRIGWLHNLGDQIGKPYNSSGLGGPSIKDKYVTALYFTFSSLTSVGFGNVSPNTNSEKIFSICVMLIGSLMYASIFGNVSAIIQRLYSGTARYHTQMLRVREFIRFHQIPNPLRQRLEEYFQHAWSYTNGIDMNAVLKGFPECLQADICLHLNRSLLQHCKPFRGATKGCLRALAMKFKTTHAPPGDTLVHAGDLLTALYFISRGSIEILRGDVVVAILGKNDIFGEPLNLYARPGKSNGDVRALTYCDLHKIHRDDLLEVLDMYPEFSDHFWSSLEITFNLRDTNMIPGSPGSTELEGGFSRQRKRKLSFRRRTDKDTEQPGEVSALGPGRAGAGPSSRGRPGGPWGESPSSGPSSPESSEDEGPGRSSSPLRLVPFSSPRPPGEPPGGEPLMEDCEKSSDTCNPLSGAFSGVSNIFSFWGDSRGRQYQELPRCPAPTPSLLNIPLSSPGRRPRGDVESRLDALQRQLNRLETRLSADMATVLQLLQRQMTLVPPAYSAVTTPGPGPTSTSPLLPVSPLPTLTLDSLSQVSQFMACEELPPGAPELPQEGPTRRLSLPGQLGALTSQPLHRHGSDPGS
Description: (§1) An hERG current was recorded by the whole-cell patch clamp technique. A suspension of HEK293 cells stably expressing the hERG ion channel was added to a 35 mm culture dish, and the culture dish was put on a stage of an inverted microscope. […] The pulse program was repeated every 15 seconds throughout the whole test. After the current became stable, the administration method of continuous extracellular perfusion from low concentration to high concentration was used, and the perfusion started from low concentration and continued until the drug effect was stable, and then the perfusion of the next concentration was performed.
(§2) After the test, stimulus release and signal acquisition were carried out through PatchMaster software. Graphpad Prism 8.0 was used for further data analysis and curve fitting. Effects of each compound at different concentrations were represented with an inhibition rate of the tail current. Inhibition rate=(peak tail current before administration—peak tail current after administration)/peak tail current before administration x 100%. Half-maximal inhibitory concentration IC50 of the test samples was obtained by the fitting analysis with Hill equation.

hERG = molecular target: T2, hERG (Homo sapiens, UniProt Q12809); assay: as above; type: cell-based; details: human, HEK293 cells stably expressing the hERG ion channel
T2 construct: expressed in transfected cells; host or cells: HEK293 cells stably expressing hERG
T2 sequence (Q12809 whole entry): as above
Description: as §1, §2

MV4-11 cell = MV4-11 cell proliferation experiment (CCK-8 cell viability); type: cell-based; details: Homo sapiens, MV4-11 cells, 72-hour culture
Description: EXAMPLE 9 Cell Experiment (MV4-11 Cell Proliferation Experiment)
Determination of Cell Viability with CCK-8 Reagent
(1) MV4-11 cell suspension was pipetted from a culture flask into a 15 mL centrifuge tube, and the cell suspension was centrifuged at 1000 rpm for 4 minutes.
(2) A supernatant in the centrifuge tube was discarded, and an appropriate amount of fresh complete medium (IMDM+10% FBS+1% P/S) was added to resuspend the cells. 20 μL of cell suspension was collected, 20 μL of trypan blue was added, and CounterStar was used for counting.
(3) A required cell suspension volume and complete medium volume were calculated according to viable cell density and the required number of plated cells. MV4-11 cells were plated at a density of 1*10^4 cells/well in 100 μL/well.
(4) 100 μL of the above cell suspension was pipetted into a 96-well plate by using an electric pipette. 150 μL of complete medium was added to blank control wells. PBS was added to peripheral wells of the 96-well plate, to avoid liquid evaporation. The 96-well plate was cultured overnight in an incubator.
Day 2: Compound Preparation:
(1) The compound of the present application dissolved in DMSO and the positive control substance ABBV-744 were fetched, and subjected to serial dilution (dilution in column A, column B, . . . , column J sequentially from left to right in a 96-well PCR plate).
An initial concentration of the solution in column A is 10 mM;
Column B: 2 μL of the solution in column A was diluted with 8 μL of DMSO to obtain a final concentration of 2000 μM;
Column C: 2 μL of the solution in column B was diluted with 8 μL of DMSO to obtain a final concentration of 400 μM;
Column D: 2 μL of the solution in column C was diluted with 8 μL of DMSO to obtain a final concentration of 80 μM;
Column E: 2 μL of the solution in column D was diluted with 8 μL of DMSO to obtain a final concentration of 16 μM;
Column F: 2 μL of the solution in column E was diluted with 8 μL of DMSO to obtain a final concentration of 3.2 μM;
Column G: 2 μL of the solution in column F was diluted with 8 μL of DMSO to obtain a final concentration of 0.64 μM;
Column H: 2 μL of the solution in column G was diluted with 8 μL of DMSO to obtain a final concentration of 0.128 μM;
Column I: 2 μL of the solution in column H was diluted with 8 μL of DMSO to obtain a final concentration of 0.0256 μM; and
Column J: 2 μL of the solution in column I was diluted with 8 μL of DMSO to obtain a final concentration of 0.00512 μM.
The suspension was centrifuged for 1 minute at 1000 rpm by using a low-speed centrifuge.
(2) 3×Compound Preparation: (Diluted in a 96-Well Cell Culture Plate)
3 μL of each of the solutions in columns B to J was pipetted into […] of complete medium by a 10 μL manual pipette to obtain 3×compound solutions with a final concentration of 30000, 6000, 1200, 240, 48, 9.6, 1.92, 0.384 and 0.0768 nM, respectively; and 3 μL of DMSO was pipetted into […] of complete medium as a control. The resulting 96-well cell culture plate was put on an oscillator to be oscillated at 500 rpm for 30 minutes.
(1) The prepared 3×compound solutions with the above concentrations were each pipetted by a manual pipette with its volume set to 50 μL into a corresponding well of the 96-well plate after overnight culture on the first day, and the total culture volume of each well was 150 μL. The final concentrations of the compounds in the 96-well plate were 10 μM, 2 μM, 400 nM, 80 nM, 16 nM, 3.2 nM, 0.64 nM, 0.128 nM and 0.0256 nM, respectively. The resulting 96-well plate was put on an oscillator to be oscillated at 500 rpm for 10 minutes.
(2) The 96-well plate as prepared was put in a CO2 incubator for 72-hour culture.
(1) CCK-8 test solution was pipetted into the 96-well cell culture plate in an amount of 15 μL/well by a pipette with a volume set to 15 μL.
(2) The 96-well plate was put in the CO2 incubator for 4-hour culture. […]

MV4-11 xenograft tumor = assay: In vivo efficacy test, MV4-11 xenograft tumor model in mice; details: NOD-SCID mice, 5 mg/kg qd gavage, 14 days
Description: EXAMPLE 11 In Vivo Efficacy Test of the Compound of the Present Application
Objective: To test the inhibitory effect of the test compound on the growth of xenograft tumor in nude mice with MV4-11 leukemia.
Method: NOD-SCID mice were subcutaneously inoculated with MV4-11 cells to establish an MV4-11 xenograft tumor model in mice. 16 days after inoculation (d16), average tumor volume was about 210 mm^3. According to the tumor volumes, the tumor-bearing mice were grouped in a random block method, with 6 mice in each group. The groups included a solvent control group, an ABBV-744 control group, and a test sample group, the dosage was 5 mg/kg mouse body weight, and the dose volume was 10 mL/kg mouse body weight, once a day. Each group was gavage administered for 14 consecutive days, and the solvent control group was gavage administered with a blank solvent (20% […] solution). Tumor volumes were measured twice weekly after administration of the test drug. The animals were euthanized after the test.

[1] = read-out: Average hERG inhibition rate
[2] = read-out: hERG Inhibition rate, Cell 1
[3] = read-out: hERG Inhibition rate, Cell 2

## CCNC(=O)c1cc2c(-c3cc(C(C)(C)O)ccc3Oc3c(C)cc(F)cc3C)cn(C)c(=O)c2[nH]1 [ABBV-744, reference compound]
hERG ion channel
  IC50: 3120 nM
hERG; [1]
  inhibition at 0.37 µM: 5.35%
  inhibition at 1.11 µM: 17.4%
  inhibition at 3.33 µM: 54.7%
  inhibition at 10 µM: 87.6%
  inhibition at 30 µM: 99.1%
hERG; [2]
  inhibition at 0.37 µM: 8.24%
  inhibition at 1.11 µM: 23%
  inhibition at 3.33 µM: 57.7%
  inhibition at 10 µM: 87.9%
  inhibition at 30 µM: 99.4%
hERG; [3]
  inhibition at 0.37 µM: 2.46%
  inhibition at 1.11 µM: 11.8%
  inhibition at 3.33 µM: 51.7%
  inhibition at 10 µM: 87.3%
  inhibition at 30 µM: 98.7%
MV4-11 cell
  IC50: 7.22 nM
MV4-11 xenograft tumor
  Relative tumor proliferation rate T/C: 45.98%

## CCNC(=O)c1cc2c(-c3sc(C(C)(C)O)cc3N3CCc4cccc(F)c43)cn(C)c(=O)c2[nH]1 [Compound 2, N-ethyl-4-(3-(7-fluoroindolin-1-yl)-5-(2-hydroxypropyl-2-yl)thiophen-2-yl)-6-methyl-7-oxo-6,7-dihydro-1H-pyrrolo[2,3-c]pyridine-2-carboxamide]
MV4-11 cell
  IC50: 24.2 nM

## CCNC(=O)c1cc2c(-c3sc(C(C)(C)O)cc3N3CCc4cccc(C)c43)cn(C)c(=O)c2[nH]1 [Compound 3, N-ethyl-4-(5-(2-hydroxypropyl-2-yl)-3-(7-methylindolin-1-yl)thiophen-2-yl)-6-met hyl-7-oxo-6,7-dihydro-1H-pyrrolo[2,3-c]pyridine-2-carboxamide]
MV4-11 cell
  IC50: 39.8 nM

## CCNC(=O)c1cc2c(-c3sc(C(C)(C)O)cc3N3CCc4cc(F)ccc43)cn(C)c(=O)c2[nH]1 [Compound 4, N-ethyl-4-(3-(5-fluoroindolin-1-yl)-5-(2-hydroxypropyl-2-yl)thiophen-2-yl)-6-methyl-7-oxo-6,7-dihydro-1H-pyrrolo[2,3-c]pyridine-2-carboxamide]
MV4-11 cell
  IC50: 6.3 nM

## CCNC(=O)c1cc2c(-c3sc(C(C)(C)O)cc3N3CCc4cc(C(F)(F)F)ccc43)cn(C)c(=O)c2[nH]1 [Compound 5, N-ethyl-4-(5-(2-hydroxypropyl-2-yl)-3-(5-trifluoromethylindolin-1-yl)thiophen-2-y I)-6-methyl-7-oxo-6,7-dihydro-1H-pyrrolo[2,3-c]pyridine-2-carboxamide]
MV4-11 cell
  IC50: 12.1 nM

## CCNC(=O)c1cc2c(-c3sc(C(C)(C)O)cc3N3CCCc4cc(F)ccc43)cn(C)c(=O)c2[nH]1 [Compound 6, N-ethyl-4-(5-(2-hydroxypropyl-2-yl)-3-(6-fluoro-3,4-dihydroquinolin-1(2H)-yl)thiophen-2-yl)-6-methyl-7-oxo-6,7-dihydro-1H-pyrrolo[2,3-c]pyridine-2-carboxamide]
MV4-11 cell
  IC50: 8.2 nM

## CCNC(=O)c1cc2c(-c3sc(C(C)(C)O)cc3N3CCc4cccc(C(F)(F)F)c43)cn(C)c(=O)c2[nH]1 [Compound 7, N-ethyl-4-(5-(2-hydroxypropyl-2-yl)-3-(7-(trifluoromethyl)indolin-1-yl)thiophen-2-yl)-6-methyl-7-oxo-6,7-dihydro-1H-pyrrolo[2,3-c]pyridine-2-carboxamide]
MV4-11 cell
  IC50: 17.3 nM
